Results on 61 molecules are retold here after a melting point compilation (Tetko et al.; mined from patent text by program, amines drawn as free bases though some values may be those of a salt).

For `Cc1n[nH]c2c1C(=O)CC(c1ccccc1Cl)C2` (stereo unspecified), the melting point lay within 168 to 170 °C. Next, `O=c1cc(-c2ccc(OC3CCN(C4CCC4)CC3)cc2)cn[nH]1`: 296 to 298 °C; `O=C1O[C@@H](Cn2ccnn2)CN1c1ccc(-c2ccc(C3=NO[C@H](Cn4ccnc4)C3)nc2)c(F)c1`: 239 to 242 °C; `CCc1[nH]n(C2CCCC2)c2nc(-c3ccccc3O)nc(=O)c1-2`: 272 to 273 °C. Take `N#Cc1ncn2c1[C@@H]1CCN1C(=O)c1cc(Cl)ccc1-2`: the melting point is 258 to 261 °C. Next, `CCS(=O)(=O)n1cc(C(=O)C2CSC(c3cccnc3)N2)c2ccc(OCc3ccccc3)cc21` (stereo unspecified): 76 to 82 °C. To `CCOC(=O)c1cnc(O)nc1NCc1ccc(OC)c(Cl)c1` belongs 117 to 122 °C; to `CC(C)(C)CC(C)(C)c1cc(Cc2cc(C(C)(C)CC(C)(C)C)cc(-n3nc4ccccc4n3)c2O)c(O)c(-n2nc3ccccc3n2)c1`, 198 °C; to `Cc1cc(O)ccc1N=Cc1ccccc1O`, 95 to 97 °C. The molecule `Cc1cccc(Nc2ncnc3ccc(N)cc23)c1` registered a melting point of 205 to 206 °C. Consider `CSc1coc2cc(NS(C)(=O)=O)c(Oc3ccccc3)cc2c1=O`, for which the melting point was 175 to 176 °C. The molecule `O=C(NCc1cccc([N+](=O)[O-])c1)Nc1ccccc1` registered a melting point of 153 to 156 °C.

`Cc1ccc2cccc(OCc3cc(N(C)C(=O)CN)ccc3Cl)c2n1`: the melting point was 82 to 87 °C. To `NC(Cc1ccc(O)cc1)CN1CCN(c2ccccc2)CC1` (stereo unspecified) belongs > 270 °C. Next, `CCOc1ccc(CC(=O)O)cc1OCCCc1cn(-c2ccc(C(F)(F)F)cn2)nc1C1CCCCC1`: 134 to 135 °C. Next, `CC1(CN2CCN(N=Cc3ccc(OC(F)(F)F)cc3)CC2)Cn2cc([N+](=O)[O-])nc2O1` (stereo unspecified): 189 to 191 °C; `O=C(O)COc1c(-c2cccc(Cl)c2)cc(C(=O)NCCCCc2ccccc2)cc1-c1cccc(C(F)(F)F)c1`: 187 to 190 °C.

The molecule `N=C(N)N(CCCC(C=O)NC(=O)CNC(=O)CCc1ccccc1)C(=O)OCc1ccccc1` (stereo unspecified) showed a melting point of 69 to 74 °C. To `CCOC(=O)C1=C(O)c2ccc3ccccc3c2S(=O)(=O)N1C` belongs 163 to 165 °C. Molecule `CCCCCCOC(=O)CS(=O)(=O)Nc1c(C(C)C)cccc1C(C)C` gave a melting point of 66 to 68 °C. `COCOc1cc(OC)c(OC)cc1-c1c(C(=O)OC)[nH]c(C(=O)OC)c1-c1ccc(OC)c(OC)c1` returned a melting point of 162 to 163 °C. To `C[Si](C)(C)OC1(C(=O)c2ccccc2)CC2CCC(C1)N2CCCC(c1ccc(F)cc1)c1ccc(F)cc1` (stereo unspecified) belongs 111 to 113 °C; to `CC(C)(C)OC(=O)N1CCc2c(cc(O)c(O)c2F)C(c2ccc(O)cc2)C1` (stereo unspecified), 100 to 105 °C. `O=C1C2=C(CCCC2)C(=O)N1c1ccc2c(c1)NC(=O)C21CC1` registered a melting point of 274 to 276 °C. Next, `CC(C)(OC(=O)Cc1cccc(F)c1)C(=O)c1ccc(S(C)(=O)=O)cc1`: 173 °C; `CC(O)c1cc2c(s1)C(=O)c1sccc1C2=O` (stereo unspecified): 170 to 172 °C; `COc1ccc(C(=O)c2ccccn2)cc1`: 96 to 98 °C.

`O=C(OC1CCc2c(c3ccccc3n2Cc2ccc(Cl)cc2)C1)c1ccccc1` (stereo unspecified) registered a melting point of 150 to 152 °C.

For the molecule `CCCCCCC(C)N(Cc1ccc(CC(C)(C)C)cc1)C(Nc1cc(C(C)(C)C)c(O)c(C(C)(C)C)c1)=C1C(=O)COC1=O` (stereo unspecified), the melting point was in the range of 158 to 160 °C. Next, `N#Cc1cnc2cc(-c3csc(C=O)c3)ccc2c1Nc1ccc(Cl)cc1Cl`: 286 to 288 °C; `OCC(O)CNCC(O)C(O)C(O)C(O)CO` (stereo unspecified): 133 to 134 °C; `O=C(O)C1C2CCC(C2)C1NS(=O)(=O)c1ccccc1` (stereo unspecified): 157 to 159 °C. Turning to `NS(=O)(=O)c1cc2[nH]c(C(F)F)nc2cc1Cl`, the melting point was 233 to 235 °C. Molecule `COc1cc(C(O)C(C)C)cc2c1OC(C)(C)C2` (stereo unspecified) yielded a melting point of 113 to 116 °C.

Regarding `c1cc(CN2CCOCC2)c(CN2CCOCC2)s1`, the melting point lay within 58 to 60 °C. To `Nc1ccc2sc(-c3cccnc3)nc2c1` belongs 189 to 196 °C. Regarding `FC(F)(F)c1cccc(-c2nnc(Cl)cc2Cl)c1`, the melting point was 80 to 81.5 °C. For the molecule `CS(=O)(=O)N1CCC(C=O)CC1`, the melting point came to 97 °C. In turn, `Cc1c(NC(=O)c2ccc(-c3ccc4c(c3)OCO4)cc2)ccc2cc(CN3CCCC3)cnc12` returned a melting point of 171 to 172 °C.

In the case of `CC(C)(C)c1cc(-c2nnc(S(C)(=O)=O)s2)cc(C(C)(C)C)c1O`, the melting point came to 156 °C. `O=C(Nc1cccc(-n2ccnc2)c1)c1ccn(-c2ccccc2)c1`: the melting point lay in the range of 100 to 103 °C.

For the molecule `COc1c(CN2CCC(=O)C(C(c3ccccc3)c3ccccc3)C2)cc(C(C)(C)C)cc1C(C)(C)C` (stereo unspecified), the melting point was 136 to 138 °C. Next, `COC(=O)C1=C(O)c2c(c3cc(OC)ccc3n2C)S(=O)(=O)N1`: 225 to 226 °C. Turning to `FC(F)(F)c1c[nH]c(-c2ccc(-c3nc(C(F)(F)F)c[nH]3)cc2)n1`, the melting point turned out to be 325 °C. Next, `Cc1cc2c(S(C)(=O)=O)nc(CCC(F)(F)F)nc2s1`: 60 to 61 °C; `Nc1nnc(-c2ccc3ncn(-c4cccc(OC(F)(F)F)c4)c3c2)o1`: 215 to 216 °C; `Cc1ccc(-c2ccc3c(c2)C=C(C(=O)Nc2ccc(CCl)cc2)CCO3)cc1`: 164 °C.

As to `COc1cc(C)c(OC)c(C=C(C)[N+](=O)[O-])c1C`, the melting point fell in the range of 48 to 49 °C. Next, `CCCCCCCCCCC1CN(C)C(=O)N(O)C1` (stereo unspecified): 63 to 64.5 °C; `CC1=C(C(=O)OCCN(C)Cc2ccccc2)C(c2cccc3c(=O)c(C)c(-c4ccccc4)oc23)C(C(=O)OC(C)C)=C(C)N1` (stereo unspecified): 170 to 172 °C; `CN(C)c1c(S(=O)C(F)(F)F)c(-c2ncon2)nn1-c1c(Cl)cc(C(F)(F)F)cc1Cl` (stereo unspecified): 82 to 84 °C. Molecule `CCCN(CCC)C(=O)CC1CN(Cc2ccccc2)c2ccc(OC(=O)Nc3ccc(C(C)C)cc3)cc21` (stereo unspecified) displayed a melting point of 157 to 161 °C. To `O=C1N(c2cc(Cl)nc(Cl)c2)C(=O)C2(Cc3ccc(O)cc3)CCCN12` (stereo unspecified) belongs 165 °C.

`CN1CCC(c2c[nH]c3cc(F)c(OS(=O)(=O)c4c(F)cccc4F)cc23)CC1`: the melting point amounted to 202 °C.

Take `O=C(O)CCn1c(=O)n(CCN2CCN(c3ccc(F)cc3)CC2)c(=O)c2cscc21`: the melting point fell in the range of 202 to 203 °C. To `CCOC(=O)c1cc(C(=O)CBr)[nH]n1` belongs 174 to 176 °C.

The molecule `O=C(Cc1ccccc1Cl)Nc1ccc(C(=O)Oc2ccccc2)c(Cl)c1` returned a melting point of 160 to 163 °C.

The molecule `CCc1nc2c(N)nc3ccccc3c2n1CCOCCS(C)(=O)=O` came in with a melting point of 160 to 163 °C.

For the molecule `Cn1cc(C(=S)NCc2ccc(Cl)cc2)c(=O)c2cc(I)ccc21`, the melting point lay within 153 to 155 °C. Next, `CC1(C)COc2cc3c(cc21)C1(CO3)C(=O)N(C(c2ccccc2)c2ccccc2)c2ccccc21` (stereo unspecified): 190 to 192 °C; `Clc1ccc(-c2cc(C3CC3)n3ncc(I)c3n2)cc1`: 189 to 190 °C.

One may read the melting point as the temperature of the solid-liquid transition.
